Results from patent US9072676B2, “Cyclohexyl carbamate compounds as skin and/or hair lightening actives” (SYMRISE AG, priority 2010, dated 2015).
Like-named read-outs stand apart in the source and are kept apart here.

Legend:
[1] = system: B16V mouse melanoma cells; assay: Depigmenting effect on melanoma cell cultures (inhibition of pigmentation); type: cell-based; settings: read-out: IC50 (concentration at which pigmentation is inhibited by 50%)
Description: B16V mouse melanoma cells are disseminated in a 96-well microtitre plate in a concentration of 5×10^3 cells/well. After cultivation for 24 h at 37° C. and 5% CO2 in RPMI medium, enriched with 10% foetal calf serum, various concentrations of the test substances and 0.3 mM tyrosine and 10 nM α-MSH (α-melanocyte stimulating hormone) are added and incubated for a further 96 h. The maximum concentration of the test substances used corresponds to 0.1 times the value of the IC20 value of the cytotoxicity assay. Standards are incubated with kojic acid in concentrations of 0.01 mM, 0.1 mM and 1 mM in addition to tyrosine and α-MSH. Only tyrosine and α-MSH are added to the controls. After incubation, sodium lauryl sulfate and sodium hydroxide solution (final concentrations: 1 mM and 1 M respectively) are added to the culture medium and the absorption (A) is measured after 3 h at 400 nm.
The inhibition of pigmentation in the presence of the test compounds or kojic acid was calculated using the following equation: Inhibition of pigmentation (%)=100−[(Atest compound/Acontrol)×100] wherein
Atest compound=absorption of the wells with test substance and with cells
Acontrol=absorption of the wells without test substance, but with cells
From the inhibition of pigmentation (%) in a series of dilutions of test compounds, the IC50 for each test compound is calculated. This is the concentration of a test compound at which pigmentation is inhibited by 50%.

Pigmented pig skin = assay: Depigmenting effect on ex vivo skin (melanin granules, Fontana-Masson stain, image analysis); type: tissue-based; settings: applied topically, 6 days
Description: Pigmented pig skin was excised from animals (slaughtered for meat production; the pig skin model included the subcutis fat layer as described in EP 1 939 27), cut into 4×4×3 mm pieces (length×width×height) and placed in culture at the air-liquid interface on a sterilized cotton pad soaked with 5 ml of customized DMEM (Dulbecco's Modified Eagle Medium). Assays were started 24 h after sample acclimatization at 37° C., 5% CO2. O/W emulsions (as described in more detail below) without (=control) and with the test compounds, respectively, were applied topically and incubated for 6 days. Histological sections were prepared and melanin granules stained by Fontana-Masson technique. The granules were quantified by image analysis.
The O/W emulsions used had the following composition:
Phases A and B are heated to 70° C. separately. Pemulen TR1 as well as Ultrez-21 are dispersed in phase B when heated to 70° C. Phase B/C is added to phase A by mixing with an Ultra Turrax, followed by emulsifying. Phase D is slowly added to phase A/B/C using a paddle mixer and a pH 5.5-6 is adjusted. The formulation is cooled down while mixing with a paddle mixer. Phase E is prepared by dissolving one or more compounds of formula (I) in Hydrolite-5. Subsequently, phase E is added to the mixture of phase A-D.

[2] = B16V cells, 0.3 mM tyrosine and 10 nM α-MSH, 96 h incubation, absorption at 400 nm

| IC50 [1, 2] | Compound | other results |
| --- | --- | --- |
| 40.9 µM | C=C(C)C1CCC(C)CC1OC(=O)NCC (centres unmarked) [BIO1551, Ethyl-carbamic acid 2-isopropenyl-5-methyl-cyclohexyl ester] | – |
| 32.7 µM | CCNC(=O)OC1CC(C)CC(C)C1 (centres unmarked) [BIO1561, Ethyl-carbamic acid 3,5-dimethyl-cyclohexyl ester] | Melanin score vs. Control (Pigmented pig skin; 1 wt.% in O/W emulsion): −26% |
| – | CCNC(=O)OC1CC(C)CC(C)(C)C1 (centres unmarked) [BIO1572, Ethyl-carbamic acid 3,3,5-trimethyl-cyclohexyl ester] | IC50 ([1]; 96 h): 63.1 µM |
| – | CCNC(=O)OC1CC2CCC1(C)C2(C)C (centres unmarked) [BIO1573, Ethyl-carbamic acid 1,7,7-trimethyl-bicyclo[2.2.1]hept-2-yl ester] | IC50 ([1]; 96 h): 74.9 µM |
| – | COCCCNC(=O)OC1CC(C)CC(C)(C)C1 (centres unmarked) [BIO1574, (3-Methoxy-propyl)-carbamic acid 3,3,5-trimethyl-cyclohexyl ester] | IC50 ([1]; 96 h): 9.5 µM |
| 43 µM | C=C(C)C1CCC(C)CC1OC(=O)NCCCC (centres unmarked) [BIO1615, Butyl-carbamic acid 2-isopropenyl-5-methyl-cyclohexyl ester] | – |
| 10.9 µM | CCCCNC(=O)OC1CC(C)CC(C)(C)C1 (centres unmarked) [BIO1616, n-Butyl-carbamic acid 3,3,5-trimethyl-cyclohexyl ester] | – |
| 15.4 µM | CCCCNC(=O)OC1C(C)CCC(C)C1C (centres unmarked) [BIO1617, n-Butyl-carbamic acid 2,3,6-trimethyl-cyclohexyl ester] | – |
| 5.6 µM | CC1CC(OC(=O)Nc2ccccc2O)CC(C)(C)C1 (centres unmarked) [BIO1642, (2-Hydroxy-phenyl)-carbamic acid 3,3,5-trimethyl-cyclohexyl ester] | – |
| 0.7 µM | CC1CCCC(OC(=O)Nc2ccccc2O)C1C (centres unmarked) [BIO1643, (2-Hydroxy-phenyl)-carbamic acid 2,3-dimethyl-cyclohexyl ester] | Melanin score vs. Control (Pigmented pig skin; 0.5 wt.% in O/W emulsion): −26% |
| 4.7 µM | CC(C)C1CCCCC1OC(=O)Nc1ccccc1O (centres unmarked) [BIO1646, (2-Hydroxy-phenyl)-carbamic acid 2-isopropyl-cyclohexyl ester] | – |
| 18.9 µM | CC1CC(C)CC(OC(=O)Nc2ccccc2)C1 (centres unmarked) [BIO1685, Phenyl-carbamic acid 3,5-dimethyl-cyclohexyl ester] | – |
| 10.9 µM | CC1CCCCC1NC(=O)OC1CCC(C(C)(C)C)CC1 (centres unmarked) [BIO1690, (2-Methyl-cyclohexyl)-carbamic acid 4-tert-butyl-cyclohexyl ester] | – |
| 41.7 µM | CCN(CC)C(=O)OC1C(C)CCC(C)C1C (centres unmarked) [BIO1692, Diethyl-carbamic acid 2,3,6-trimethyl-cyclohexyl ester] | – |
| 38.5 µM | CCN(CC)C(=O)OC1CCCCC1C(C)C (centres unmarked) [BIO1694, Diethyl-carbamic acid 2-isopropyl-cyclohexyl ester] | – |
| 10.2 µM | COc1ccccc1NC(=O)OC1C(C)CCC(C)C1C (centres unmarked) [BIO1701, (2-Methoxy-phenyl)-carbamic acid 2,3,6-trimethyl-cyclohexyl ester] | – |
| 25.1 µM | COc1ccccc1NC(=O)OC1CC(C)CC(C)(C)C1 (centres unmarked) [BIO1703, (2-Methoxy-phenyl)-carbamic acid 3,3,5-trimethyl-cyclohexyl ester] | Melanin score vs. Control (Pigmented pig skin; 0.5 wt.% in O/W emulsion): −37% |
| 12.7 µM | CCCC1CCC(OC(=O)NCCCC(OCC)OCC)CC1 (centres unmarked) [BIO1707, (4,4-Diethoxy-butyl)-carbamic acid 4-propyl-cyclohexyl ester] | – |
| 5.5 µM | CC(C)(C)C1CCCCC1OC(=O)Nc1ccccc1 (centres unmarked) [BIO1740, Phenyl-carbamic acid 2-tert-butyl-cyclohexyl ester] | – |
| 12.9 µM | O=C(Nc1ccccc1)OC1CCCCC1 [BIO1741, Phenyl-carbamic acid cyclohexyl ester] | Melanin score vs. Control (Pigmented pig skin; 1 wt.% in O/W emulsion): −28% |
| 18.3 µM | COc1ccccc1NC(=O)OC1CCCCC1C(C)C (centres unmarked) [BIO1744, (2-Methoxy-phenyl)-carbamic acid 2-isopropyl-cyclohexyl ester] | – |
| 52.5 µM | Cc1ccc(NC(=O)OC2CC(C)CC(C)C2)cc1 (centres unmarked) [BIO1822, p-Tolyl-carbamic acid 3,5-dimethyl-cyclohexyl ester] | – |
| 4.7 µM | Cc1ccc(NC(=O)OC2CCCCC2C(C)C)cc1 (centres unmarked) [BIO1824, p-Tolyl-carbamic acid 2-isopropyl-cyclohexyl ester] | Melanin score vs. Control (Pigmented pig skin; 1 wt.% in O/W emulsion): −44% |
| 72.5 µM | Cc1ccc(NC(=O)OC2CCCC(C)C2)cc1 (centres unmarked) [BIO1825, p-Tolyl-carbamic acid 3-methyl-cyclohexyl ester] | – |
| 89.5 µM | CCCCNC(=O)OC1CC(C)CC(C)C1 (centres unmarked) [BIO1840, n-Butyl-carbamic acid 3,5-dimethyl-cyclohexyl ester] | – |
| 28.5 µM | CCCCNC(=O)OC1CCCCC1C(C)C (centres unmarked) [BIO1841, Butyl-carbamic acid 2-isopropyl-cyclohexyl ester] | – |
| 94.1 µM | CCCCNC(=O)OC1CCCC(C)C1C (centres unmarked) [BIO1842, Butyl-carbamic acid 2,3-dimethyl-cyclohexyl ester] | – |
| 219 µM | CCC(C)NC(=O)OC1CC(C)CC(C)(C)C1 (centres unmarked) [BIO1844, sec-Butyl-carbamic acid 3,3,5-trimethyl-cyclohexyl ester] | – |
| 14.3 µM | CCCCCCNC(=O)OC1CC(C)CC(C)(C)C1 (centres unmarked) [BIO1850, n-Hexyl-carbamic acid 3,3,5-trimethyl-cyclohexyl ester] | – |
| 67 µM | OC[C@H]1O[C@@H](Oc2ccc(O)cc2)[C@H](O)[C@@H](O)[C@@H]1O [beta-Arbutin, reference compound] | – |
